The assay concerns the target T1, PPARδ (Homo sapiens, UniProt Q03181).
T1 construct: gene PPARD; pcDNA3-PPARδ expressed in HeLa cells
T1 sequence (Q03181 1-441): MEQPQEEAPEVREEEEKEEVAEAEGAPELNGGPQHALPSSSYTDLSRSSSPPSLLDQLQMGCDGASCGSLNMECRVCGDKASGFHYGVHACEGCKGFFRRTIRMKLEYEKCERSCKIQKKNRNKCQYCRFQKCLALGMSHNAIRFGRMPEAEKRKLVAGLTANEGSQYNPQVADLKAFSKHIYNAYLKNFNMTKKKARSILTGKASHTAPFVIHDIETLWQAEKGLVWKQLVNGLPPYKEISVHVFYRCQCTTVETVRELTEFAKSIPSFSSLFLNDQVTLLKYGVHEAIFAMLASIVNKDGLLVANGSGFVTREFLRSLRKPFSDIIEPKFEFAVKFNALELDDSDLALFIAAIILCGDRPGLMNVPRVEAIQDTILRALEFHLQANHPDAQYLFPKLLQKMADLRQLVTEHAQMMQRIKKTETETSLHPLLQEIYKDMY
Description: PPRE-luciferase transactivation assay in HeLa cells, single concentration ([…]). The following applies: read-out: PPRE-luciferase transactivation assay in HeLa cells, single concentration (10 μM). It counts as cell-based.

Each structure is given as a SMILES string.

As for `Cc1ccc(Cn2c(=N)n(CC(=O)O)c3ccccc32)cc1` [compound 5, [2-imino-3-(4-methylbenzyl)-2,3-dihydro-1H-benzimidazol-1-yl]acetic acid], the fold induction at 10 µM stood at 6.4.

(Values after paper PMC4358979, “Structure-Based Virtual Screening and Discovery of New PPARδ/γ Dual Agonist and PPARδ and γ Agonists” (PLoS ONE, 2015).)
